Literature values as cited in patent publication US8173824B2, “Process for producing vitamin D derivative using convergent method” (Chugai Seiyaku Kabushiki Kaisha, priority 2005, dated 2012).

Experiments:
[1] = test system: human keratinocyte; conditions: background statement, see WO 2001/096293
[2] = compared with the conventional vitamin D derivatives; background statement

For C=C1/C(=C\C=C2/CCC[C@]3(C)C([C@H](C)OCC(=O)NCC(F)(F)C(F)(F)F)=CCC23)C[C@@H](O)C[C@@H]1O (stereo partly drawn) [Formula (1), [{(5Z,7E)-(1S,3R,20S)-1,3-dihydroxy-9,10-secopregna-5,7,10(19),16-tetraen-20-yl}oxy]-N-(2,2,3,3,3-pentafluoropropyl)acetamide], the “human keratinocyte growth inhibition activity” value [1] is given as “exhibits useful human keratinocyte growth inhibition activity” and the calcium level-raising activity [2] is given as “lower than the conventional vitamin D derivatives”.
